Reference: patent publication US11407748B2, “Substituted pyrido[1,2-a]pyrimidines and pyrazino[1,2-a]pyrimidines for enhancing AMPA receptor function” (Takeda Pharmaceutical Company Limited, priority 2017, dated 2022)

Tests used:
[1] = system: Long Evans rats; assay: Novel object recognition test; type: in vivo, rat; conditions: 1 mg/kg p.o.; for Novel Object Interaction (%): 1 hr before acquisition trial and 1 hr before retention trial, retention trial 48 hr after acquisition, mean ± standard error; for novel object interaction (result in words): rats
From the text: Experimental Example 2 Novel Object Recognition Test (1) Animals
Male Long Evans rats were supplied by Japan SLC, and used at 7-week-old in the experiments. After arrival to the vivarium, animals were allowed a minimum of 1 week for acclimation. They were housed under a 12:12-h light/dark cycle in a temperature- and humidity-controlled laboratory and allowed food and water ad libitum.
A test compound was suspended in 0.5% methylcellulose in distilled water and orally administered (p.o.). All test compounds were dosed in a volume of 2 mL/kg body weight for rats.
(3) Novel Object Recognition Test
Novel object recognition test is a test system utilizing the novel object preference characteristics of rodents. This novel object recognition test consists of two trials, “acquisition trial” and “retention trial”, and, when an interval between these two trials is short, rodents spend a longer period for novel object exploration behaviors, and the preference dissipates as the interval gets longer. From this, the behavioral change in the novel object recognition test is considered to reflect the rodents' memory of the object during the acquisition trial. In this experimental example, the retention trial was carried out 48 hr after the acquisition trial. On the day before the test, for acclimation, Long-Evans ats were allowed to freely move about the test box (40×40×50 cm) for 10 minutes. On the test day, the rats were acclimated to the test room for about 1 hr prior to the test. The test compound (Compound A (Example 14), Compound B (Example 48), 1 mg/kg) were orally administered to the rats twice 1 hr before the acquisition trial and 1 hr before the retention trial. For the acquisition trial, two identical objects (A1, A2) were placed in the test box. The rats were put in the test box for 3 min, and the duration contacting each object was measured. The retention trial was carried out 48 hr after the acquisition trial. For the retention trial, the familiar object (A3) used for the acquisition trial and the novel object (B) different shape from A3 were placed in the test box. The rats were put in the test box for 3 min. The duration contacting each object in the acquisition trial and the retention trial, and the novel object interaction (%) was calculated. The novel object interaction (%) was expressed as (the duration contacting the novel object)/[(the duration contacting the novel object)+(the duration contacting the familiar object)]×100(%) at mean±standard error.

[2] = target: T1, hGluR1 flip (Homo sapiens, UniProt P42261); assay: AMPA receptor function-enhancing activity using calcium influx as index; type: cell-based; conditions: test compound 30 μM with 3 mM glutamic acid; CHO-K1/GluR1 flip/stargazin-expressing cells; 100% = 3 mM glutamic acid + 300 μM cyclothiazide, 0% = 3 mM glutamic acid alone
T1 construct: expressed in transfected cells; host or cells: CHO-K1
T1 sequence (P42261 19-906 isoform P42261-2 limits assumed): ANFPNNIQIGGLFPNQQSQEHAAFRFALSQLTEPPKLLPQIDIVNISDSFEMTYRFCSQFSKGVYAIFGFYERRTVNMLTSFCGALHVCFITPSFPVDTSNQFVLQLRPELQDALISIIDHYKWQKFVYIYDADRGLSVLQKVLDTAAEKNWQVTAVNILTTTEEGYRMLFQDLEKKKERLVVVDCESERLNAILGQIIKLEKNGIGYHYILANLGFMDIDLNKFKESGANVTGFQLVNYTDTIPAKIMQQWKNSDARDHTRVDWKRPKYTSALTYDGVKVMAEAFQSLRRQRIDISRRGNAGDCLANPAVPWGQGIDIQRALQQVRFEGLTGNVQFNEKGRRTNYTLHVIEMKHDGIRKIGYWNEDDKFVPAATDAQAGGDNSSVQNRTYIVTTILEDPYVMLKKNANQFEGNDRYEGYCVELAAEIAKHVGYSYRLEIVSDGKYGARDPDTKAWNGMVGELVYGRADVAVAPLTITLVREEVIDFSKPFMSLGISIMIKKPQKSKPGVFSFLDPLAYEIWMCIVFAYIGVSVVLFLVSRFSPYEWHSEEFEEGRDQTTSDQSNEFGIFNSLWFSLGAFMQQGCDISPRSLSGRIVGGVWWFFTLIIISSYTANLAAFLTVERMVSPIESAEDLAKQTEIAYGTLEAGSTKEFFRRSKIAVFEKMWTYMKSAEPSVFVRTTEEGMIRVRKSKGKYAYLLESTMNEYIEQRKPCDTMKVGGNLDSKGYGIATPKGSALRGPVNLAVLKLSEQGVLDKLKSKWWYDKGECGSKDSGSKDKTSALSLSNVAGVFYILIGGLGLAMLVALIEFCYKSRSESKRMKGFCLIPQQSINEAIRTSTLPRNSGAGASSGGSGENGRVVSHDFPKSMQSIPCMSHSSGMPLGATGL
T1 sequence (Q9Y698 whole entry partner): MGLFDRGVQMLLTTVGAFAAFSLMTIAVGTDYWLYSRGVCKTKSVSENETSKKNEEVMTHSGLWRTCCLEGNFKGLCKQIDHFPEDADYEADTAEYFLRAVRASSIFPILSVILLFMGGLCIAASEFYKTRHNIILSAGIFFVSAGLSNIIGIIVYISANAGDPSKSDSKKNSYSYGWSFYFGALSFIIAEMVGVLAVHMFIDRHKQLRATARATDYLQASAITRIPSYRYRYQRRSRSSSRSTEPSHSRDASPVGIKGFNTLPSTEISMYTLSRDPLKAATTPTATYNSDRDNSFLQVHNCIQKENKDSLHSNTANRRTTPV
Procedure, shortened: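 CHO-K1 cells co-expressing human GluR1 flip and stargazin, loaded with Calcium5 dye with 1.25 mM probenecid. Test compound at 30 μM added with 3 mM glutamate; fluorescence followed 3 min. Activity % scaled between glutamate alone (0%) and glutamate plus 300 μM cyclothiazide (100%).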

| activation at 30 µM [2] [%] | SMILES | Novel Object Interaction (%) [1] [%] | novel object interaction (result in words) [1] |
| --- | --- | --- | --- |
| 94.3 | O=C(c1ccc(-c2cccn3c(=O)c(Br)c(C(F)(F)F)nc23)cc1)N1CCOCC1 [Example 14, 3-bromo-9-(4-(morpholin-4-ylcarbonyl)phenyl)-2-(trifluoromethyl)-4H-pyrido[1,2-a]pyrimidin-4-one] | 61.94 ± 2.33 | increased the novel object interaction |
| 88.1 | C[C@H]1CN(C(=O)c2ccc(-c3cccn4c(=O)c(Br)c(C(F)(F)F)nc34)cc2)CCO1 [Example 48, 3-bromo-9-(4-(((2S)-2-methylmorpholin-4-yl)carbonyl)phenyl)-2-(trifluoromethyl)-4H-pyrido[1,2-a]pyrimidin-4-one] | 61.42 ± 2.61 | increased the novel object interaction |
| 110 | O=C(NC1CCOCC1)c1ccc(-c2cccn3c(=O)c(Cl)c(C(F)(F)F)nc23)cc1 [Example 131, 4-(3-chloro-4-oxo-2-(trifluoromethyl)-4H-pyrido[1,2-a]pyrimidin-9-yl)-N-(tetrahydro-2H-pyran-4-yl)benzamide] | – | – |
| 106 | O=C(N[C@H]1CCCOC1)c1ccc(-c2cccn3c(=O)c(Cl)c(C(F)(F)F)nc23)cc1 [Example 132, 4-(3-chloro-4-oxo-2-(trifluoromethyl)-4H-pyrido[1,2-a]pyrimidin-9-yl)-N-((3S)-tetrahydro-2H-pyran-3-yl)benzamide] | – | – |
